The data set can be described thus: Human HepG2 cell viability assay in 384 well format. The data set is classed as toxicity, cell-based. Also on record: dose 125 nL, time 70.5 hour; cytotoxicity at 70.5 h: concentration not given beside the values. As to conditions: HepG2 cells, read-out: Inhibition.

Consider `O=C(Cc1ccc(-n2cnnn2)cc1)Nc1nncs1`, for which the cytotoxicity at 70.5 h was -3.13%.
With `CN(CCO)C(=O)Nc1ccn(-c2cccc(C(F)(F)F)c2)n1`, the cytotoxicity at 70.5 h is -2.71%.
On to `COCCNC(=O)Nc1ccn(-c2cccc(C(F)(F)F)c2)n1`, for which the cytotoxicity at 70.5 h worked out at 9.44%.
On to `CC(C)C(NC(=O)c1ccccc1)C(=O)N1CCC2(CC1)OCCO2` (centres undefined), for which the cytotoxicity at 70.5 h was found to be 17.2%.
The same measure for `CN(CCOc1ccc(Br)cc1)Cc1cscn1`: 1.92%.
The same measure for `CN(Cc1ccsc1)C(=O)CN1CCc2c(ncn2C)C1`: 17.8%; for `CCN(CCS(=O)(=O)CC)CC1CCCO1` (centres undefined): -3.45%.
The same measure for `CCc1nc(CN(C)Cc2nnc(-c3cccs3)o2)cs1`: -3.41%; for `Cc1nsc(NC2CCN(c3ccccc3OC(F)F)C2=O)n1` (centres undefined): 9.92%.
Take `Cc1cc(C)cc(OCCN(C)Cc2cscn2)c1`: the cytotoxicity at 70.5 h came out at 0.706%.
The same measure for `COc1cccc2c1N(Cc1noc(C(C)(C)C)n1)CCC2`: 18.5%; for `COCCN(C)C(=O)Nc1ccn(-c2cccc(C(F)(F)F)c2)n1`: -2.62%; for `CC(O)CN(C)C(=O)Nc1ccn(-c2cccc(C(F)(F)F)c2)n1` (centres undefined): -3.19%.
Turning to `CCN(CC(=O)NCCc1nc(C)no1)Cc1ccc(Cl)cc1`, the cytotoxicity at 70.5 h was -2.02%.
As for `CC(C)(C)OC(=O)N1CCC[C@H](NCC2CCOCC2)C1`, the cytotoxicity at 70.5 h was -0.369%.
The same measure for `CCC(=O)N1CCC(NC2CCCC2)C1` (centres undefined): -7.41%; for `Cn1ncc2c(=O)[nH]c(CN3CCCc4cc(F)ccc43)nc21`: -23.1%; for `Cc1cc(F)c2c(c1)CCCN2Cc1nc2c(cnn2C)c(=O)[nH]1`: -28.1%.
Consider `CCN(CC)Cc1ccc(C(=O)NC2CCc3cc(F)ccc32)o1` (centres undefined), for which the cytotoxicity at 70.5 h is -19%.
The same measure for `CCN(CC)Cc1ccc(C(=O)NC2CCc3cc(Cl)ccc32)o1` (centres undefined): 21.2%; for `CC(C)N(Cc1ccccc1)C(=O)NCCNC(=O)c1cccnc1`: -13.6%.
The same measure for `NC(=O)CC1CCCCN1C(=O)c1ccc2cc[nH]c2c1` (centres undefined): 21.6%.
The same measure for `O=C(NCc1ccccn1)NCC(O)c1ccccc1C(F)(F)F` (centres undefined): -5.77%; for `CC(C)CNC(=O)c1[nH]nc(C2CC2)c1Br`: -4.78%.
Take `CC(C)(CNc1c(C#N)cnc2ccc(Cl)cc12)C(N)=O`: the cytotoxicity at 70.5 h is -17.7%.
Consider `CN(C)C(CNC(=O)c1[nH]nc(C2CC2)c1Br)C1CC1` (centres undefined), for which the cytotoxicity at 70.5 h is -5.45%.
In the case of `Cc1cc(C2CCCN(CC(=O)N3CCCc4ccccc43)C2)n[nH]1` (centres undefined), the cytotoxicity at 70.5 h is -9.66%.
The same measure for `Cc1c(Br)cccc1C(=O)Nc1cc(C(N)=O)n(C)c1`: -6.66%; for `CCc1csc(NC(=O)Nc2c(C)n[nH]c2C)n1`: -4.31%; for `CS(=O)(=O)CC1(CNc2cc(C#N)c3cc(Cl)ccc3n2)CC1`: -6.39%.
Regarding `Cc1cnc(CN(C)Cc2cccc(OC(F)(F)F)c2)cn1`, the cytotoxicity at 70.5 h is -3.82%.
The same measure for `CCC1c2ccccc2CCN1CCCS(C)(=O)=O` (centres undefined): -3.06%; for `CN(Cc1cccc(O)c1)Cc1cnn(C)c1`: -4.55%; for `CC(NCc1cnc(N2CCN(C)CC2)nc1)c1ccc(F)cc1` (centres undefined): -6.26%.
The same measure for `CCCN1CCCN(C(=O)c2oc(C)nc2C)CC1`: 30.9%; for `CC(C)OCc1noc(C2CCOC2)n1` (centres undefined): -9.31%.
Consider `CC(c1nc(C(C)(C)C)no1)S(=O)(=O)CC(=O)N(C)C` (centres undefined), for which the cytotoxicity at 70.5 h was -6.15%.
The same measure for `CC(c1nc(C(C)(C)C)no1)S(=O)(=O)CC(=O)N1CCCC1` (centres undefined): -2.18%.
Consider `Cc1cn2nc(Sc3nnnn3C)sc2n1`, for which the cytotoxicity at 70.5 h is -4.31%.
Consider `COc1ccc(C(=O)Nc2ccc3c(c2)C(=O)NC3)cc1Br`, for which the cytotoxicity at 70.5 h was -5.4%.
On to `CNS(=O)(=O)c1ccc(C(=O)Nc2ccc3c(c2)C(=O)NC3)cc1`, for which the cytotoxicity at 70.5 h turned out to be 1.61%.
For `CC(SCC(=O)N(C)CC(=O)NC1CC1)c1ccc(F)c(F)c1` (centres undefined), the cytotoxicity at 70.5 h was -10.3%.
The same measure for `CN(CC(=O)NC(C)(C)C)C(=O)C1CC(c2cccc(F)c2)=NO1` (centres undefined): 4.91%.
Consider `CN(Cc1ccc2c(c1)OCO2)C(=O)C1CC(c2cccc(F)c2)=NO1` (centres undefined), for which the cytotoxicity at 70.5 h is -9.63%.
As for `CCn1c(C)nnc1Sc1nn2cc(C)nc2s1`, the cytotoxicity at 70.5 h is -5.8%.
Consider `CCCNC(=O)C1CCN(CC(O)c2ccccc2)CC1` (centres undefined), for which the cytotoxicity at 70.5 h is -10.6%.
The same measure for `CCOc1ccc(C#N)cc1NC(=O)N1CCC(n2cncn2)CC1`: 5.95%; for `COc1cccc(-c2nnn(C3CCN(CC(F)(F)F)C3=O)n2)c1` (centres undefined): 0.471%.
The same measure for `O=C(c1cc(F)ccc1O)N1CCN(C(=O)C2CCC2)CC1`: -3.26%.
The same measure for `O=C(c1cc(F)ccc1O)N1CCN(C2CCOCC2)CC1`: 0.856%; for `CC(C)(C)S(=O)(=O)c1ccc(N2CCC(n3cncn3)CC2)cn1`: 14.6%; for `CC(C)(C)S(=O)(=O)c1ccc(N2CCC(n3cccn3)CC2)cn1`: 6.49%.
For the compound `CC(C)(C)S(=O)(=O)c1ccc(N2CCC(n3ccnc3)CC2)cn1`, the cytotoxicity at 70.5 h is -12.2%.
As to `CCOC(=O)CN(C)Cc1cnc(C)s1`, the cytotoxicity at 70.5 h was 7.03%.
The same measure for `CC(C)OCc1noc(C2CCCOC2)n1` (centres undefined): -10.6%; for `CN1CC(NC(=O)CCOc2cccc(Cl)c2)CC1=O` (centres undefined): 17.2%.
The same measure for `CC(C)C(=O)N(C)Cc1nnc2n1CCCCC2`: 25%.
Turning to `CN(C(=O)Cc1coc(-c2ccccc2)n1)C1(C#N)CCC1`, the cytotoxicity at 70.5 h came to 1.14%.
The same measure for `CC(C)OCCCNC(=O)NC(C)c1ccc(-n2cncn2)cc1` (centres undefined): 0.395%.
The same measure for `CCOCCCNC(=O)NC(C)c1ccc(-n2cncn2)cc1` (centres undefined): -5.55%.
For the compound `CC(=O)c1cccc(S(=O)(=O)N2CCC(c3noc(C)n3)CC2)c1`, the cytotoxicity at 70.5 h is -9.37%.
The same measure for `Cc1ccc(OCCC(=O)NC2CC(=O)N(C)C2)cc1C` (centres undefined): -6.43%.
`CC(C)CC(NS(C)(=O)=O)C(=O)N(C)Cc1nnc2n1CCC2` (centres undefined): the cytotoxicity at 70.5 h is -8.38%.
The same measure for `O=C(Nc1ccccc1)c1ccc(NCc2nccs2)nn1`: -10%; for `Cc1cnn(CCNC(C)C(=O)NCCc2cccs2)c1` (centres undefined): 23%; for `O=C(Nc1ccccc1)c1ccc(NCc2ccccc2CO)nn1`: -6.13%.
The same measure for `CS(=O)(=O)CCSCc1cccc2cccnc12`: -4.91%; for `CCc1cnc(N2CCN(Cc3ccon3)CC2)s1`: -6.28%.
The same measure for `CC(=O)Nc1ccc(CNC2CCCSC2)cc1` (centres undefined): 23.3%.
Turning to `CN(C(=O)Cc1coc(-c2cccs2)n1)C1(C#N)CCC1`, the cytotoxicity at 70.5 h is -6.29%.
The same measure for `CC(C)OCCn1nnnc1Cc1ccc(Br)cc1`: -5.01%; for `COC(=O)CC1CN(Cc2c(Cl)ccc3cccnc23)CCO1` (centres undefined): -12.3%; for `CC(CNC(=O)NCc1ccco1)CC1(C)OCCO1` (centres undefined): 15.5%.
The same measure for `CC(CNC(=O)NCc1ccc2c(c1)OCO2)CC1(C)OCCO1` (centres undefined): -5.24%.
Consider `CCc1nsc(N2CCN(Cc3ccno3)CC2)n1`, for which the cytotoxicity at 70.5 h is -0.144%.
The same measure for `CC(O)CN1CCC(CN(C)Cc2cc(C#N)ccc2F)CC1` (centres undefined): -7.5%; for `Clc1cccc(CNc2cnn(CCN3CCCCC3)c2)c1`: -11.9%.
For the compound `CC1CN(C(=O)NCCc2nc(C(C)C)no2)CCO1` (centres undefined), the cytotoxicity at 70.5 h worked out at 10.3%.
The same measure for `Cc1nn(C)c2ncc(CN3CCCCCC3)cc12`: -5.07%.
The same measure for `CCN1CCOC(CNCc2c(Cl)nc3ccccn23)C1` (centres undefined): -21.6%.
As for `CCCn1nnnc1COc1cc(OC)ccc1C(N)=O`, the cytotoxicity at 70.5 h was -7.31%.
`Cc1noc(C)c1CN(C)Cn1c(=O)oc2ccccc21`: the cytotoxicity at 70.5 h was 39.4%.
The same measure for `O=C(COc1ccccc1)N1CCCC1c1ccc[nH]1` (centres undefined): -17.9%; for `Cc1noc(C)c1CN(C)C(=O)Cn1c(=O)n(C)c2ccccc21`: -15.9%.
For the compound `CC(C)C(C(=O)N1CCN(Cc2ccncc2)CC1)n1cncn1` (centres undefined), the cytotoxicity at 70.5 h was -9.68%.
The same measure for `CCC(C)NC(=O)Cc1c(C)nc2c(c1C)c(=O)[nH]n2C` (centres undefined): -8.46%; for `Cc1cc(C)n(C2CN(Cc3noc(-c4ccccc4)n3)C2)n1`: -4.76%; for `CCS(=O)(=O)CCNC(=O)c1ccc(-c2ccc(C)cc2)cc1F`: -6.67%.
The same measure for `CC(C)(C)OC(=O)CNC(=O)CCc1nnc(-c2ccsc2)o1`: 0.905%; for `COc1ccc(-c2nc(CN3CC(n4cc(C)cn4)C3)no2)cc1`: -4.24%; for `O=C(NC1(c2cccc(F)c2)CCOCC1)c1ccccn1`: 12%.
Regarding `NC(=O)CSCC(=O)N1CCc2cc(Cl)cc(Cl)c2C1`, the cytotoxicity at 70.5 h is -10.4%.
The same measure for `Cc1cc(OCC(=O)NC(C)c2ccc(N3CCOCC3)cc2)no1` (centres undefined): -3.83%; for `CCc1ccc(C2CCCCCN2Cc2nc(CCOC)no2)o1` (centres undefined): -6.85%.
The same measure for `Clc1ccc(CN2CCCC(Cn3cncn3)C2)c2ncccc12` (centres undefined): -8.25%.
The same measure for `CCc1noc(CN(C)Cc2ccc(N3CCCCC3)cc2)n1`: -7.61%; for `CC(C)c1noc(CN(Cc2cccs2)C2CC2)n1`: 6.94%.
`COCCN(C)Cc1ccc(OC)c(OC(F)F)c1`: the cytotoxicity at 70.5 h was -5.27%.
Take `COCCC(=O)Nc1ccnc(Oc2ccccc2)c1`: the cytotoxicity at 70.5 h is 2.24%.
For the compound `O=C(COc1cccc2c1CCC2=O)NCCOc1ccccc1`, the cytotoxicity at 70.5 h worked out at 15.4%.
The same measure for `COc1ccc(NC(=O)CNc2ccc(Br)cc2F)cc1`: -1.21%; for `CCN(CC)C(=O)c1ccc(NC(=O)CNc2ccc(Br)cc2F)cc1`: 4.87%.
The same measure for `Cc1cc(=O)n2ncnc2n1CC(O)c1ccccc1Cl` (centres undefined): -3.15%; for `Cc1cccc(-c2c[nH]c(C3CCCN3)n2)c1` (centres undefined): -7.37%.

The values are drawn from ChEMBL document CHEMBL3507680, “University of Dundee, Gates Library screen for HepG2 cell viability”.
